{"source": "patent US11278682B2", "about": "“Device and method for aerosolized delivery of substance to a natural orifice of the body” (SIPNOSE LTD., priority 2014, dated 2022)", "key": {"patients": {"system": "patients", "assay": "Midazolam as pre-anesthetic drug: effectiveness, safety and user compliance, SipNose vs commercial nasal pump", "format": "in vivo, human", "conditions": "for BIS value (minimum after administration): 8 patients", "description": "Midazolam was administered as a pre-anesthetic drug as a part of premeditation to subjects that needed to be anesthetized prior to the beginning a surgical procedure. Administration of the pre-anesthetic drug was done intranasally instead of the routine PO/IM (oral/intramuscular) route used by the anesthesiologist from the hospital.\nThe intranasal administration was given by one of the following medical devices: a SipNose nasal device (FIG. 93A) or a commercial nasal pump (FIG. 93B). A single dose of 1×600 microliter (μl) was given with the SipNose device, while 6×100 μl doses were given with a commercial nasal pump. An exemplary administration for the SipNose device is shown in FIG. 94A, while an exemplary administration for the commercial nasal pump is shown in FIG. 94B.\nEight low-risk patients (American Society of Anesthesiology physical status classification I or II) patients were included in each group. Clinical status of the patients, standard continuous monitoring of vital signs, and continuous bispectral index (BIS) monitoring was ongoing 5 minutes before intranasal administration and 30 minutes after.\nThe objective data consisted in minimum BIS value obtained after administration and time until minimum BIS. The subjective data consisted in physician feedback, swallowing of the drug appreciated by patient, sleeping score appreciated by physician.\nSedation Score was evaluated by physicians as a behavior tool to determine effectiveness of the dose that was given in each of the nasal administrations. Scoring was done according to the following criteria: 1=not Sleepy (not effective); 2=Sleepy/Calm (intermediate effect); 3=Sleeping (drug was effective).\nPatients were asked to score if they felt the drug in their throat and/or felt a bitter taste in the throat after the administration of the drug.\nThe bitterness and swallowing were graded according to the following scale: 1=No swallowing/No bitter taste; 5=A meaningful amount was swallowed/Strong bitter taste.\nThe repeated administrations with the nasal pump were given with 30 s intervals between them to allow the drug to be absorbed in the nasal cavity before another dose was given.\nThe anesthesiologist in charge of the patients was asked to rate the overall experience with intranasal administration of midazolam. (1=very good; 5=Not satisfactory)."}, "[1]": {"system": "Pentylenetetrazol (PTZ)-induced epileptic seizures in rats", "assay": "Pentylenetetrazol (PTZ)-induced epileptic seizures, Racine grading, Midazolam IV vs SipNose", "format": "in vivo, rat", "description": "In this example, epileptic seizures were induced in rats by administration of 47.5-50 mg/kg of Pentylenetetrazol (PTZ) for 5 min before the start of treatment with Midazolam. The Midazolam was administered either via IV or using a SipNose device, via the nasal passages. There were two dosing levels, 0.6 mg/kg (FIG. 78) and 6 mg/kg (FIG. 79).\nIn all cases, the Racine grading standard was used to determine the severity of the seizures. PZT was at t=−5 min, the start of treatment was at time t=0.\nTreatment consisted of saline (control, diamonds), Midazolam administered by IV (triangles) or Midazolam administered nasally by a SipNose device (squares)."}, "[2]": {"system": "Pentylenetetrazol (PTZ)-induced epileptic seizures in rats", "assay": "Brain concentration of Midazolam vs convulsion score in PTZ-induced seizures", "format": "in vivo, rat", "conditions": "60 minutes after administration", "description": "Epileptic seizures were induced in rats by administration of Pentylenetetrazol (PTZ) and the severity of the seizures was measured 60 minutes after administration of Mizadolam. Doses of Mizadolam varied from zero to 6 mg/kg with SipNose nasal delivery device and with an I/V administration. Brain concentrations of Midazolam were measured and a correlation between brain concentration and convulsions score is shown in FIG. 81. Brain concentrations varied from zero to 130 ng/gr brain tissue. Black squares represent the I/V administrated animals and black dots represent the SipNose administrated animals."}, "Sprague-Dawley (SD) rats": {"system": "Sprague-Dawley (SD) rats", "assay": "Safety and toxicity of intranasal Midazolam via SipNose device", "format": "in vivo, rat", "description": "Safety and possible adverse effects (toxicity) were assessed the safety and toxicity including adverse effects of Midazolam following intranasal administration via SipNose dedicated device to Sprague-Dawley (SD) rats.\nA total of 78 SD rats (39 female and 39 male) were utilized. The animals were divided into four groups of 3 or 12 female rats and 3 or 12 male rats. At each of the times 6 hrs, 24 hrs, 7 days, and 14 days, three males and three females were sacrificed.\nThe test material was a commercially available injectable Midazolam.\nThe day of dosing was Day 1 and termination days were Day 1 (6 hrs), Day 2 (24 hrs), Day 8 and Day 15.\nEach test material or vehicle dose was administrated to three female and three male rats at each of the above times. The administration was performed intranasally (IN) via a SipNose device. The dose volume was 25-125 μl per naris (50-250 μl total per rat). Dosing was performed in an escalating fashion, each increase in dose depending on the outcome of the previous dose. The time between increasing doses was approximately half an hour.\nDosing was performed in a staggered fashion, each increase in dose pending on the outcome of the previous dose. The lag time between the increasing doses was approximately half an hour. The maximum dose was five times the clinical dose in order to determine a maximum tolerated dose.\nThe test material and vehicle were administered IN once via a SipNose device at a dose volume of 50-250 μl to non-fasting animals.\nAnimals were observed individually at least once during the first 30 minutes alter dosing and daily thereafter, for a total of 1, 7, or 14 days (according to time of sacrifice for histological observation). All observations were systematically recorded and individual records were maintained for each animal.\nBody weight was monitored one day after the animals' arrival, prior to administration of the test material and twice a week thereafter (days 4, 8, 10 and 15) for a total of 5 times.\nClinical signs were observed daily, at least once during the first 30 min after dosing, periodically during the first 24 h, with special attention during the first 4 h, and once daily thereafter.\nAnimals were sacrificed by carbon dioxide asphyxiation and gross pathology was performed examining the major tissue and organ systems. All animals were subjected to gross necropsy.\nThe tissue samples from groups 1, 2, 3 and 4 (M+F) were embedded, sectioned and mounted on slides. The tissue sections were stained with Hematoxylin & Eosin (H&E).\nThree cross sections of the skull and brain were taken: (1) in the nose from rostral area, (2) behind the incisor teeth and (3) in the caudal area including the olfactory epithelium labyrinth (FIG. 85). The brain was dissected in the olfactory regions, hippocampus, cerebellum and brain stem. The lungs were evaluated in both right and left lobes. The inflammatory status in the tissue samples were evaluated using the following parameters.\n• Grade 0: No inflammation • Grade 1: Mild (few inflammatory cells, 10-20 per ×40 high-power field) • Grade 2: moderate (more inflammatory cells, 20-50 per ×40 high-power field), • Grade 3: severe (many inflammatory cells, more than 50 per ×40 high-power field)."}}, "note": "Entries after “also recorded” stand apart in the source; their conditions may differ.", "data": [{"smiles": "Cc1ncc2n1-c1ccc(Cl)cc1C(c1ccccc1F)=NC2", "note": "[Midazolam]", "values": [{"measurement": "patients with Highly Effective sedation", "setting": "patients; Commercial Nasal Pump", "result": 12.5, "unit": "%"}, {"measurement": "patients with Intermediate Effect of sedation", "setting": "patients; Commercial Nasal Pump", "result": 50, "unit": "%"}, {"measurement": "patients with sedation Not Effective", "setting": "patients; Commercial Nasal Pump", "result": 37.5, "unit": "%"}, {"measurement": "patients with Highly Effective sedation", "setting": "patients; SipNose", "result": 100, "unit": "%"}, {"measurement": "Sedation Score (1 not sleepy, 2 sleepy/calm, 3 sleeping)", "setting": "patients; SipNose group", "result": 3}, {"measurement": "BIS value (minimum after administration)", "setting": "patients; SipNose group, 1×600 μl", "result": "74.50±3.196"}, {"measurement": "adverse events or safety issues", "setting": "patients; both administration procedures (SipNose and commercial nasal pump)", "result": "No adverse events or safety issues were reported"}, {"measurement": "Sedation Score (1 not sleepy, 2 sleepy/calm, 3 sleeping)", "setting": "patients; commercial pump group", "result": "below 2"}, {"measurement": "BIS value (minimum after administration)", "setting": "patients; commercial pump group, 6×100 μl", "result": "87.25±1.840"}, {"measurement": "Racine seizure severity", "setting": "[1]; 0.6 mg/kg Midazolam nasally by SipNose, about t=10 min to t=60 min", "result": "zero, no seizures were seen"}, {"measurement": "Racine seizure severity", "setting": "[1]; 6 mg/kg Midazolam IV", "result": "< 0.5"}, {"measurement": "Racine seizure severity", "setting": "[1]; 6 mg/kg Midazolam nasally by SipNose", "result": "< 0.5"}, {"measurement": "Midazolam brain concentration at which Racine severity reaches zero", "setting": "[2]; IV administration", "result": "about 130 ng/gm"}, {"measurement": "Midazolam brain concentration up to which Racine severity remained at about 1", "setting": "[2]; IV administration", "result": "about 25 ng/gm"}, {"measurement": "Midazolam brain concentration needed to completely prevent seizures (score=0)", "setting": "[2]; SipNose administration", "result": "~11", "unit": "ng/gm"}, {"measurement": "death of neurons in the brain", "setting": "Sprague-Dawley (SD) rats; SD rats, Midazolam treated groups", "result": "No death of neurons was detected"}, {"measurement": "adverse effects or histopathological findings in examined tissues", "setting": "Sprague-Dawley (SD) rats; SD rats, both tested doses (clinical dose and five times clinical dose)", "result": "no adverse effects or histopathological findings; also recorded: no pathological abnormalities were found"}, {"measurement": "very mild inflammation in most caudal cross section of the nose", "setting": "Sprague-Dawley (SD) rats; SD rats, seen in saline and Midazolam groups, 12 out of 42 animals", "result": "most probably not drug-related"}, {"measurement": "clinical signs", "setting": "Sprague-Dawley (SD) rats; SD rats, single intranasal dose via SipNose, up to 14 days", "result": "No abnormal clinical signs were detected"}, {"measurement": "weight gain vs control group", "setting": "Sprague-Dawley (SD) rats; female rats, five times the clinical dose, days 10 and 15", "result": "statistically significant greater weight gain"}, {"measurement": "body weight increase vs control group", "setting": "Sprague-Dawley (SD) rats; male rats, clinical dose of Midazolam, at several times", "result": "statistically significant greater increase in weight"}]}]}
